Results on ten molecules are retold here after patent US20240208905A1, “ABIRATERONE DERIVATIVE, PREPARATION AND APPLICATION THEREOF” (GUANGDONG ZHONGKE MEDICINE R&D LTD., priority 2021, published 2024).

Like-named read-outs stand apart in the source and are kept apart here.

Assay [1] concerns experimental rabbit ear acne. As to the kind of experiment: Pharmacodynamics evaluation of acne: coal tar rabbit ear acne model, HE pathology. In kind it is in vivo, Japanese big-ear white rabbits. The conditions noted are these: 0.01% ointment, 1 g per animal, once a day, two weeks, 10 rabbits per group; for Degree of keratinization: number of rabbits graded + / Degree of keratinization: number of rabbits graded ++ / Degree of keratinization: number of rabbits graded +++ / Degree of keratinization: number of rabbits graded −: hair follicle keratinization. The source says: There are 140 male healthy Japanese big-ear white rabbits, weighing 2.0-2.5 kg. After one week of adaptive rearing, 10 rabbits were randomly selected according to their body weights as the normal control group, and the remaining 130 rabbits were coated with coal tar once a day in the area of 2×2 cm2 at 2 cm outside the opening of ear canal, with a thickness of about 0.5 mm (Before coating, the coal tar was heated to melt in a water bath, and the last coal tar shell was removed before each application; the rabbits in normal control group were coated with olive oil by the same method as before). After 3 weeks for modeling, according to the degree of skin lesion, 130 rabbits were randomly divided into 13 groups which is model control group, Example 1 compound (1 group), Example 2 compound (2 groups), Example 3 compound (3 groups), Example 4 (4 groups), Example 5 (5 groups), Example 6 (6 groups), Example 7 (7 groups), Example 8 (8 groups), Example 9 (9 groups), Example 10 (10 groups), Example 11 (11 groups), Example 12 (12 groups), Example 13 (13 groups), and each group had 10 rabbits. After grouping, each dose group were continued to be coated coal tar in the morning, and after the coal tar was removed in the afternoon, apply the test drug or control drug (both 0.01%/10 g ointment, apply 1 g ointment per animal) on the lesion, once a day, for two consecutive weeks (the model control group and the normal control group were coated with the same amount of matrix). 24 hours after the last administration, the animals were sacrificed by air embolism, and the skin (full thickness) of the ear where the administration was administered was taken, fixed with 4% paraformaldehyde solution, stained with HE, and routinely observed for pathology.1.

For assay [2], the system named is human prostate cancer cell VCaP nude mouse transplanted tumor model. The experiment in a line: Prostate tumor pharmacodynamics experiment: VCaP nude mouse transplanted tumor model. In kind it is in vivo, BALB/c nude mice. Particulars: for inhibition in vivo at 500 µmol/kg: Mus musculus, VCaP, po, 600 h, read-out: Growth Inhibition rate (GI); for Tumor volume, day 25: n=6, * P<0.05, ** P<0.01 vs solvent control.
Procedure: Male BALB/c nude mice (number: 90; age: 6-7 weeks) purchased from Beijing Vital River Laboratory Animal Technology Co., Ltd., were raised in the SPF animal room of Suzhou Shengsu New Drug Development Co., Ltd. at a temperature of 20˜25° C. and a relative humidity 40%˜70%, and bright and dark illumination for 12 hours respectively; these mice were allowed to drink and eat freely. After normal feeding for about 6 days, mice with good physical signs can be selected for this experiment after veterinary inspection. Before grouping, animals were identified at their base of tail using marking pens. After grouping, each animal was identified by ear clipping.
Human prostate cancer cells VCaP were obtained from the Shanghai Cell Bank of the Chinese Academy of Sciences (CAS, cryopreserved in liquid nitrogen in our laboratory).
Under a culture condition of 5% CO2 and 37° C., VCaP cells were routinely cultured in DMEM medium containing 10% fetal bovine serum. Digested with 0.25% trypsin and passaged, VCaP cells were passaged 2-3 times per week based on cell growth, with a passage ratio of 1:3 to 1:5.
The VCaP cells in logarithmic growth phase were collected, counted, and resuspended in 50% DMEM basal medium and 50% Matrigel Matrix, and the cell concentration was adjust to 5×10^7 cells/mL; the cells was placed in an ice box; Cell suspension was aspirated with a 1 ml syringe, and injected subcutaneously to the anterior right armpit of nude mice. Each animal was inoculated with 200 μL (1×10^7 cells/mouse), and a VCaP transplant tumor model in nude mice was established. Regularly observe the status of mice, measure the diameter of the tumor with an electronic vernier caliper, input the data into Excel spreadsheets, calculate the tumor volume, and monitor its growth. When the tumor volume reached 100-300 mm3, 60 mice with good health and similar tumor volume were selected, and divided into 10 groups (n=6) based on the tumor volume using random block method, while ensuring that the average body weight of each group remained consistent as much as possible. The day of grouping was taken as the first day of the experiment (D1). The tumor diameters were measured twice a week after the initiation of the experiment, the tumor volumes were calculated, and the body weights of the animals were weighed and recorded at the same time.
Preparation of DMSO&PEG400&PG (v:v:v, 10:60:30): appropriate volumes of DMSO, PEG400 and PG were drawed respectively, and mixed well. The ratio of DMSO, PEG400 and PG in the mixture is 10:60:30 (v:v:v), and this mixture is used as a blank solvent and stored at room temperature.
Appropriate amount of the test compound was weighed and added into a glass bottle, appropriate volume of solvent DMSO was added, be treated with vortex ultrasonication, then appropriate volumes of PEG400 and PG were added in turn, be vortex mixed to obtain a dosing formulation with a final concentration of 0.05M. The dosing formulation was stored in refrigerator at 2-8° C. after subpackaging, and was stirred evenly with vortex before each administration. The dosing formulation was prepared every 7 days, and was subpackaged and stored in refrigerator at 4° C.
Appropriate amount of ZONK1901-10 was weighed and added into a glass bottle, appropriate volume of corn oil, was added, be treated with vortex ultrasonication evenly, a dosing formulation with a final concentration of 19.58 mg·mL-1 (0.05 M) was obtained.

Setting [3] is: day 25, 0.5 mmol·kg−1 i.g. QD, vs solvent control.

As for `CN(C)CCNC(=O)ON=C1C=C2CC[C@H]3[C@H](CC[C@]4(C)C(c5cccnc5)=CC[C@@H]34)[C@@]2(C)CC1` [Example 1, (8S,9S,10R,13S,14S)-10, 13-Dimethyl-17-(pyridin-3-yl) -6,7,8,9,10,11,12,13,14,15-decahydro-1H-cyclopenteno[a]phenanthrene-3(2H)-one O-((2-(dimethylamino)ethyl)carbamoyl)oxime], in assay [1], the “degree of inflammatory cell infiltration: number of rabbits graded +” value turned out to be 5, the “degree of inflammatory cell infiltration: number of rabbits graded ++” value is reported as 3, the “degree of inflammatory cell infiltration: number of rabbits graded +++” value came to 2 and the “degree of inflammatory cell infiltration: number of rabbits graded −” value came out at 0. Moreover, in assay [1], the “Degree of keratinization: number of rabbits graded +” value was 6, the “Degree of keratinization: number of rabbits graded ++” value stood at 4, the “Degree of keratinization: number of rabbits graded +++” value stood at 0 and the “Degree of keratinization: number of rabbits graded −” value was found to be 0. For the same molecule, the inhibition in vivo at 500 µmol/kg in assay [2] (setting [3]) turned out to be 82.2%. The “Tumor volume, day 25” value in assay [2] (day 25, 0.5 mmol·kg−1 i.g. QD) is 384 ± 32 ** mm3.
With `CN(C)C(=O)ON=C1C=C2CC[C@H]3[C@H](CC[C@]4(C)C(c5cccnc5)=CC[C@@H]34)[C@@]2(C)CC1` [Example 2, (8S,9S,10R,13S,14S)-10,13-Dimethyl-17-(pyridin-3-yl) 6,7,8,9,10,11,12,13,14,15-decahydro-1H-cyclopenta[a]phenanthrene-3(2H)-one O-dimethylcarbamoyl oxime], in assay [1], the “degree of inflammatory cell infiltration: number of rabbits graded +” value came out at 4, the “degree of inflammatory cell infiltration: number of rabbits graded ++” value is on record as 4, the “degree of inflammatory cell infiltration: number of rabbits graded +++” value stood at 2 and the “degree of inflammatory cell infiltration: number of rabbits graded −” value is on record as 0. Also, in assay [1], the “Degree of keratinization: number of rabbits graded +” value is listed as 5, the “Degree of keratinization: number of rabbits graded ++” value was determined as 5, the “Degree of keratinization: number of rabbits graded +++” value stood at 0 and the “Degree of keratinization: number of rabbits graded −” value was found to be 0. For the same molecule, the inhibition in vivo at 500 µmol/kg in assay [2] (setting [3]) came to 81.4%. Moreover, in assay [2] (day 25, 0.5 mmol·kg−1 i.g. QD), the “Tumor volume, day 25” value is given as 393 ± 25 ** mm3.
Consider `C[C@]12CCC(=NOC(=O)N(CCCl)CCCl)C=C1CC[C@H]1[C@@H]2CC[C@]2(C)C(c3cccnc3)=CC[C@@H]12` [Example 3, (8S,9S,10R,13S,14S)-10,13-Dimethyl-17-(pyridin-3-yl) -6,7,8,9,10,11,12,13,14,15-decahydro-1H-cyclopenta[a]phenanthrenyl-3(2H)-one O-(bis(2-chloroethyl)carbamoyl)oxime], for which, in assay [1], the “degree of inflammatory cell infiltration: number of rabbits graded +” value was determined as 5, the “degree of inflammatory cell infiltration: number of rabbits graded ++” value came out at 4, the “degree of inflammatory cell infiltration: number of rabbits graded +++” value is given as 1 and the “degree of inflammatory cell infiltration: number of rabbits graded −” value worked out at 0. Further, in assay [1], the “Degree of keratinization: number of rabbits graded +” value stood at 6, the “Degree of keratinization: number of rabbits graded ++” value is 4, the “Degree of keratinization: number of rabbits graded +++” value came to 0 and the “Degree of keratinization: number of rabbits graded −” value amounted to 0. For the same molecule, in assay [2], the inhibition in vivo at 500 µmol/kg turned out to be 71.2%. Besides, the “Tumor volume, day 25” value in assay [2] (day 25, 0.5 mmol·kg−1 i.g. QD) is given as 478 ± 64 ** mm3.
Regarding `C[C@]12CCC(=NOC(=O)N3CCC(N4CCCCC4)CC3)C=C1CC[C@H]1[C@@H]2CC[C@]2(C)C(c3cccnc3)=CC[C@@H]12` [Example 4, (8S,9S,10R,13S,14S)-10,13-Dimethyl-17-(pyridin-3-yl) -6,7,8,9,10,11,12,13,14,15-decahydro-1H-cyclopentene[a]phenanthrenyl-3(2H)-one O-([1,4′-bipiperidine]-1′-carbonyl)oxime], in assay [1], the “degree of inflammatory cell infiltration: number of rabbits graded +” value turned out to be 5, the “degree of inflammatory cell infiltration: number of rabbits graded ++” value was 3, the “degree of inflammatory cell infiltration: number of rabbits graded +++” value worked out at 2 and the “degree of inflammatory cell infiltration: number of rabbits graded −” value worked out at 0. In assay [1], the “Degree of keratinization: number of rabbits graded +” value turned out to be 7, the “Degree of keratinization: number of rabbits graded ++” value was determined as 3, the “Degree of keratinization: number of rabbits graded +++” value is 0 and the “Degree of keratinization: number of rabbits graded −” value is 1. Further, the inhibition in vivo at 500 µmol/kg in assay [2] (setting [3]) came out at 84.2%. Also, the “Tumor volume, day 25” value in assay [2] (day 25, 0.5 mmol·kg−1 i.g. QD) was 377 ± 37 ** mm3.
For the molecule `Cc1ccccc1C(=O)ON=C1C=C2CC[C@H]3[C@H](CC[C@]4(C)C(c5cccnc5)=CC[C@@H]34)[C@@]2(C)CC1` [Example 5, (8S,9S,10R,13S,14S)-10,13-Dimethyl-17-(pyridin-3-yl) -6,7,8,9,10,11,12,13,14,15-decahydro-1H-cyclopenta[a]phenanthrenyl-3(2H)-one O-(2-methylbenzoyl)oxime], in assay [1], the “degree of inflammatory cell infiltration: number of rabbits graded +” value is 6, the “degree of inflammatory cell infiltration: number of rabbits graded ++” value stood at 3, the “degree of inflammatory cell infiltration: number of rabbits graded +++” value amounted to 1 and the “degree of inflammatory cell infiltration: number of rabbits graded −” value stood at 0. Further, in assay [1], the “Degree of keratinization: number of rabbits graded +” value came out at 6, the “Degree of keratinization: number of rabbits graded ++” value stood at 4, the “Degree of keratinization: number of rabbits graded +++” value was 0 and the “Degree of keratinization: number of rabbits graded −” value was determined as 0. Further, the inhibition in vivo at 500 µmol/kg in assay [2] (setting [3]) stood at 85.2%. Besides, the “Tumor volume, day 25” value in assay [2] (day 25, 0.5 mmol·kg−1 i.g. QD) is recorded as 410 ± 44 ** mm3.
Take `CN1CCC(C(=O)ON=C2C=C3CC[C@H]4[C@H](CC[C@]5(C)C(c6cccnc6)=CC[C@@H]45)[C@@]3(C)CC2)CC1` [Example 11, (8S,9S,10R,13S,14S)-10,13-Dimethyl-17-(pyridin-3-yl) -6,7,8,9,10,11,12,13,14,15-decahydro-1H-cyclopenta[a]phenanthrenyl-3(2H)-one O-(1-methylpiperidine-4-carbonyl)oxime]: in assay [1], the “degree of inflammatory cell infiltration: number of rabbits graded +” value came out at 6, the “degree of inflammatory cell infiltration: number of rabbits graded ++” value worked out at 3, the “degree of inflammatory cell infiltration: number of rabbits graded +++” value is given as 1 and the “degree of inflammatory cell infiltration: number of rabbits graded −” value was determined as 0. Besides, in assay [1], the “Degree of keratinization: number of rabbits graded +” value turned out to be 7, the “Degree of keratinization: number of rabbits graded ++” value is listed as 3, the “Degree of keratinization: number of rabbits graded +++” value stood at 0 and the “Degree of keratinization: number of rabbits graded −” value is on record as 0.
For the molecule `CC(=O)N1CCC(C(=O)ON=C2C=C3CC[C@H]4[C@H](CC[C@]5(C)C(c6cccnc6)=CC[C@@H]45)[C@@]3(C)CC2)CC1` [Example 12, 1-(4-(((((8S,9S,10R,13S,14S)-10,13-dimethyl-17-(pyridin-3-yl) -7,8,9,11,12,13,14,15-octahydro-1H-cyclopenteno[a]phenanthrenyl-3(2H,6H, 10H) -ylidene)amino)oxy)carbonyl)piperidin-1-yl)ethanone], in assay [1], the “degree of inflammatory cell infiltration: number of rabbits graded +” value came out at 5, the “degree of inflammatory cell infiltration: number of rabbits graded ++” value is listed as 4, the “degree of inflammatory cell infiltration: number of rabbits graded +++” value was found to be 1 and the “degree of inflammatory cell infiltration: number of rabbits graded −” value was 0. Moreover, in assay [1], the “Degree of keratinization: number of rabbits graded +” value stood at 5, the “Degree of keratinization: number of rabbits graded ++” value is given as 5, the “Degree of keratinization: number of rabbits graded +++” value is on record as 0 and the “Degree of keratinization: number of rabbits graded −” value was 0.
Take `CN(C)CCN1CCC(C(=O)ON=C2C=C3CC[C@H]4[C@H](CC[C@]5(C)C(c6cccnc6)=CC[C@@H]45)[C@@]3(C)CC2)CC1` [Example 13, (8S,9S,10R,13S,14S)-10,13-Dimethyl-17-(pyridin-3-yl) -6,7,8,9,10,11,12,13,14,15-decahydro-1H-cyclopenta[a]phenanthrenyl-3(2H)-one O-(1-(2-(dimethylamino)ethyl)piperidine-4-carbonyl)oxime]: in assay [1], the “degree of inflammatory cell infiltration: number of rabbits graded +” value is given as 6, the “degree of inflammatory cell infiltration: number of rabbits graded ++” value is listed as 3, the “degree of inflammatory cell infiltration: number of rabbits graded +++” value is given as 1 and the “degree of inflammatory cell infiltration: number of rabbits graded −” value was found to be 0. In addition, in assay [1], the “Degree of keratinization: number of rabbits graded +” value turned out to be 4, the “Degree of keratinization: number of rabbits graded ++” value is listed as 6, the “Degree of keratinization: number of rabbits graded +++” value amounted to 0 and the “Degree of keratinization: number of rabbits graded −” value came to 0.
As to `CC(=O)ON=C1C=C2CC[C@H]3[C@H](CC[C@]4(C)C(c5cccnc5)=CC[C@@H]34)[C@@]2(C)CC1` [H], the inhibition in vivo at 500 µmol/kg in assay [2] (setting [3]) was found to be 69.3%.
Take `CCC(=O)O/N=C1/C=C2CC[C@H]3[C@H](CC[C@]4(C)C(c5cccnc5)=CC[C@@H]34)[C@@]2(C)CC1` [ZONK1901-19, reference compound]: the inhibition in vivo at 500 µmol/kg in assay [2] (setting [3]) was found to be 38.7%. Further, in assay [2] (day 25, 0.5 mmol·kg−1 i.g. QD), the “Tumor volume, day 25” value is listed as 790 ± 49 * mm3.
